Measured values taken from patent publication US11149033B2, “Heteroaryl compound, enantiomer, diastereomer or pharmaceutically acceptable salt thereof, and antiviral composition containing same as active ingredient” (priority 2016, dated 2021).

What was measured:
[1] = test system: A/California/07/2009 (H1N1); assay: Antiviral activity (drug efficacy evaluation by concentration) against A/California/07/2009 (H1N1); assay type: cell-based, A type influenza virus; conditions: Influenza A virus, H1N1, A/California/07/2009 (H1N1); read-out: EC50 A/California/07/2009 (H1N1)
in vitro = conditions: CC50 B/Florida/04/2006, cytotoxicity in the B/Florida/04/2006 assay
B/Florida/04/2006 = assay: Antiviral activity (drug efficacy evaluation by concentration) against B/Florida/04/2006; assay type: cell-based, B type influenza virus; conditions: read-out: EC50 B/Florida/04/2006, B/Florida/04/2006
A/Perth/16/2009 (H3N2) = assay: Antiviral activity (drug efficacy evaluation by concentration) against A/Perth/16/2009 (H3N2); assay type: cell-based, A type influenza virus; conditions: Influenza A virus, H3N2, A/Perth/16/2009 (H3N2); read-out: EC50 A/Perth/16/2009 (H3N2)

SMILES	EC50 [1]	CC50 (in vitro)	EC50 (B/Florida/04/2006)	EC50 (A/Perth/16/2009 (H3N2))
Cc1nn(Cc2nnc(SCc3ccccc3-n3cccc3)o2)c(C)c1Br [Compound 31, 2-((2-(1H-pyrrol-1-yl)benzyl)thio)-5-((4-bromo-3,5-dimethyl-1H-pyrazol-1-yl)methyl)-1,3,4-oxadiazole]	1.8 µM	11.8 µM	3.57 µM	2.3 µM
Cc1nn(Cc2nnc(SCc3ccccc3-c3ccoc3)o2)c(C)c1Br [Compound 34, 2-((4-bromo-3,5-dimethyl-1H-pyrazol-1-yl)methyl)-5-((2-(furan-3-yl)benzyl)thio)-1,3,4-oxadiazole]	1.4 µM	22.8 µM	4.48 µM	1.8 µM
Cc1nn(Cc2nnc(SCc3ccccc3Cc3ccccc3)o2)c(C)c1Br [Compound 38, 2-((2-benzylbenzyl)thio)-5-((4-bromo-3,5-dimethyl-1H-pyrazol-1-yl)methyl)-1,3,4-oxadiazole]	1.03 µM	> 50 µM	1.18 µM	1.04 µM
Cc1nc2ccccc2n1Cc1nnc(SCc2ccccc2-c2ccccc2)o1 [Compound 41, 2-(([1,1′-biphenyl]-2-ylmethyl)thio)-5-((2-methyl-1H-benzo[d]imidazol-1-yl)methyl)-1,3,4-oxadiazole]	0.69 µM	19.7 µM	1.21 µM	0.91 µM
Cc1nn(Cc2nnc(N(C)Cc3ccccc3-c3ccccc3)o2)c(C)c1Br [Compound 44, N-([1,1′-biphenyl]-2-ylmethyl)-5-((4-bromo-3,5-dimethyl-1H-pyrazol-1-yl)methyl)-N-methyl-1,3,4-oxadiazol-2-amine]	> 50 µM	> 50 µM	> 50 µM	29.4 µM
CC(=O)N(Cc1ccccc1-c1ccccc1)c1nnc(Cn2nc(C)c(Br)c2C)o1 [Compound 45, N-([1,1′-biphenyl]-2-ylmethyl)-N-(5-((4-bromo-3,5-dimethyl-1H-pyrazol-1-yl)methyl)-1,3,4-oxadiazol-2-yl)acetamide]	26.2 µM	33.5 µM	23.8 µM	25.8 µM
Cc1nn(Cc2nnc(Cc3cccc(Cl)c3)o2)c(C)c1Br [Compound 46, 2-((4-bromo-3,5-dimethyl-1H-pyrazol-1-yl)methyl)-5-(3-chlorobenzyl)-1,3,4-oxadiazole]	24.3 µM	> 50 µM	27.5 µM	21.8 µM
Cc1nn(CCc2nnc(SCc3ccccc3-c3ccccc3)o2)c(C)c1Br [Compound 49, 2-(([1,1′-biphenyl]-2-ylmethyl)thio)-5-(2-(4-bromo-3,5-dimethyl-1H-pyrazol-1-yl)ethyl)-1,3,4-oxadiazole]	> 50 µM	> 50 µM	> 50 µM	> 50 µM
Cc1nn(Cc2nnc(/C=C/c3ccccc3C(C)C)o2)c(C)c1Br [Compound 50, (E)-2-((4-bromo-3,5-dimethyl-1H-pyrazol-1-yl)methyl)-5-(2-isopropylstyryl)-1,3,4-oxadiazole]	18.7 µM	> 50 µM	24.5 µM	11.4 µM
Brc1ccc(OCc2nnc(SCc3ccccc3-c3ccccc3)o2)cc1 [Compound 58, 2-(([1,1′-biphenyl]-2-ylmethyl)thio)-5-((4-bromophenoxy)methyl)-1,3,4-oxadiazole]	> 50 µM	> 50 µM	> 50 µM	44.3 µM
CC(c1ccccc1)c1nnc(SCc2ccccc2-c2ccccc2)o1 (stereo not drawn) [Compound 73, 2-(([1,1′-biphenyl]-2-ylmethyl)thio)-5-(1-phenylethyl)-1,3,4-oxadiazole]	17.2 µM	> 50 µM	> 50 µM	41.7 µM
FC(F)(c1ccc(Br)cc1)c1nnc(SCc2ccccc2-c2ccccc2)o1 [Compound 74, 2-(([1,1′-biphenyl]-2-ylmethyl)thio)-5-((4-bromophenyl)difluoromethyl)-1,3,4-oxadiazole]	21.2 µM	> 50 µM	> 50 µM	11 µM
